Molecular target: T1, complex I (Bos taurus, UniProt P03887+P17694+P42026)
T1 construct: gene NDUFS2; whole respiratory complex I (about 45 subunits) in isolated bovine heart mitochondria, kit assay
Assay: MitoCheck complex activity assay, isolated bovine heart mitochondria
Format: biochemical
Settings: 15 min, decreased complex I activity, binding site unknown

T1 sequence (P17694 34-463): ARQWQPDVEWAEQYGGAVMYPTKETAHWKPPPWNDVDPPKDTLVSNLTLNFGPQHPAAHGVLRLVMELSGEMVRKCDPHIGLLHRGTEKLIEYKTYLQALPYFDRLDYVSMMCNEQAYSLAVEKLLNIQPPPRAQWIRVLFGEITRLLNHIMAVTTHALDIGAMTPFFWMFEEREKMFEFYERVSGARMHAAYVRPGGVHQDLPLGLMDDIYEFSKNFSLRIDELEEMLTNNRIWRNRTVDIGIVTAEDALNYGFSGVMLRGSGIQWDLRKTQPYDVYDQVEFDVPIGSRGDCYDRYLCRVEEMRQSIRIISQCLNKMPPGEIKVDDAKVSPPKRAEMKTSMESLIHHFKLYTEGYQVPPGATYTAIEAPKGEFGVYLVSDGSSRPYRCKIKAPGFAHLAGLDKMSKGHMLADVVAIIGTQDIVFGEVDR
T1 sequence (P42026 38-216): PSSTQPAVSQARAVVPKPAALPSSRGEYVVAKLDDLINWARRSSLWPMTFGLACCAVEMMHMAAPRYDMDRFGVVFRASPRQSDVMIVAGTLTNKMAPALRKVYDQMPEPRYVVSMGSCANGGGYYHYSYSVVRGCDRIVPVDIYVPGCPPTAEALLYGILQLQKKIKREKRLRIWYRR
T1 sequence (P03887 whole entry): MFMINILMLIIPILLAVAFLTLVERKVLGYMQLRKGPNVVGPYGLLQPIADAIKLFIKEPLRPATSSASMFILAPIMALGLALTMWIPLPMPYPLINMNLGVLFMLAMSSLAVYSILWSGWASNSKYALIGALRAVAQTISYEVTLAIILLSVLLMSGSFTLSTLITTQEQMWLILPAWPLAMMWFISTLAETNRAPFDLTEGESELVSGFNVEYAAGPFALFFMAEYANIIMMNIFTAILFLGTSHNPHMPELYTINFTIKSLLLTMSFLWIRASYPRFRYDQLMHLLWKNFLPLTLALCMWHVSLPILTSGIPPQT

With `COC(=O)C[C@@H]1Cc2cc3c(-c4c(OC)cc(O)c5c(O)c6c(cc45)C[C@@H](CC(=O)OC)OC6=O)c(OC)cc(O)c3c(O)c2C(=O)O1` [viriditoxin] the “activity, % of DMSO control at 10 μM” value was “we could observe a decreased activity upon treatment with VDT for complex I”.

— PMC9643474, “The mycotoxin viriditoxin induces leukemia- and lymphoma-specific apoptosis by targeting mitochondrial metabolism” (Cell Death & Disease, 2022)
